# Data taken from publication PMC12627627 (Nature Communications, 2025).
# Positions count from the first letter of the chain named. Where “and” joins values, the source holds several entries; their conditions need not be identical. Equal entries are not always repeated.
# Key:
# Type in all cases: binding
# [1] = biological target: T1, R12 domain of RyR3 (Homo sapiens, UniProt Q15413); experiment: ITC, R12 domain of RyR3
# T1 construct: RyR1 854–1054, RyR2 865–1065, RyR3 853–1053; made in house; host or cells: E. coli BL21 (DE3)
# T1 sequence (Q15413 853-1053): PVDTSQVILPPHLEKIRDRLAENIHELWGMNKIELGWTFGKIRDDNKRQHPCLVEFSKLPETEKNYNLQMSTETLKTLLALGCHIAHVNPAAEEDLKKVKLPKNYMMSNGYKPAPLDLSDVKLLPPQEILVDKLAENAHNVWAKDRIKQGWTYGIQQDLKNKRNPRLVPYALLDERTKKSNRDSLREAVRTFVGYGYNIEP
# Procedure: (§1) The plasmids were subsequently transformed into E. coli BL21 (DE3) cells (NEB, USA) and cultured in Luria-Bertani (LB) media at 37 °C. Protein expression was induced with 0.4 mM isopropyl β-D-thiogalactoside (IPTG) when the optical density (OD)600 reached ~0.8, followed by incubation at 18 °C for 12 h. The cells were harvested via centrifugation at 5,000 × g for 15 min at 4 °C and homogenized in Buffer A (10 mM HEPES, pH 7.4, 250 mM KCl) supplemented with 25 µg/mL DNaseI, 25 µg/mL lysozyme, 1 mM phenylmethylsulfonyl fluoride (PMSF), and 20 mM imidazole. The homogenate was centrifuged at 12,000 × g for 45 min, and the supernatant was filtered through a syringe filter (0.22 µm).
# (§2) Purified R12 domain protein from the three RyR isoforms, fused with hexahistidine-tagged MBP (HMT-R12) was dialyzed overnight at 4 °C in ITC buffer (200 mM HEPES, pH 7.4, 150 mM KCl). ITC experiments were performed using a PEAQ-ITC instrument (Malvern, UK) at 25 °C with a stirring speed of 750 rpm. […] For the ternary binding experiments, 500 μM or 5 mM AMP-PCP/ADP was preincubated with both the titrants and titrates. […] The data was fit to a one-site fitting model after background buffer subtraction. The RyR1 R12 mutants were generated using a QuikChange mutagenesis kit (Stratagene) according to the manufacturer’s protocol, with primer sequences listed in Supplementary Table 3.
# [2] = biological target: T2, R12 domain of RyR2 (Homo sapiens, UniProt Q92736); experiment: ITC, R12 domain of RyR2; settings: absence or presence of AMP-PCP or ADP
# T2 construct: RyR1 854–1054, RyR2 865–1065, RyR3 853–1053; made in house; host or cells: E. coli BL21 (DE3)
# T2 sequence (Q92736 865-1065): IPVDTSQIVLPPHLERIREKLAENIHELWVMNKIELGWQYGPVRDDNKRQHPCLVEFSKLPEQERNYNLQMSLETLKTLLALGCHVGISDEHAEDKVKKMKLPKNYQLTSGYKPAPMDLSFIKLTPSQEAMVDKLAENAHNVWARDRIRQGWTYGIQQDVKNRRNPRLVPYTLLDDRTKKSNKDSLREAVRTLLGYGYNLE
# Procedure: as §1, §2
# [3] = biological target: T3, R12 domain of RyR1 (Homo sapiens, UniProt P21817); experiment: ITC, R12 domain of RyR1
# T3 construct: RyR1 854–1054, RyR2 865–1065, RyR3 853–1053; made in house; host or cells: E. coli BL21 (DE3)
# T3 sequence (P21817 854-1054): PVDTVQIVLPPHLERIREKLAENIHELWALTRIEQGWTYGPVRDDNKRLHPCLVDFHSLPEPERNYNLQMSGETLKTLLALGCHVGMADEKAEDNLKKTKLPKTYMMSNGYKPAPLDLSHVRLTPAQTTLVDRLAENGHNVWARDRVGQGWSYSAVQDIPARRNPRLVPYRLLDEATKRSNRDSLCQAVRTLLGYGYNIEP
# Procedure: as §1, §2
# [4] = biological target: T4, RyR1-W881A R12 (Homo sapiens, UniProt P21817, W881A); experiment: ITC, RyR1 R12 W881A; settings: RyR1-W881A R12, no nucleotide
# T4 construct: RyR1 854–1054, RyR2 865–1065, RyR3 853–1053; made in house; host or cells: E. coli BL21 (DE3)
# T4 sequence (P21817 854-1054 W881A): T3 sequence (P21817 854-1054) with W28A
# Procedure: as §1, §2
# [5] = RyR3 R12, no nucleotide, ITC 25 °C
# [6] = RyR1 R12, no nucleotide, ITC 25 °C
smiles,measurement,setting,value
"O=C1CN(/N=C/c2ncc(-c3ccc(Br)cc3)o2)C(=O)N1 [AZU, Azumolene]",Kd,[1]; RyR3 R12 + 500 µM ADP,0.362 ± 0.086 µM
same,No of Sites (N),[1]; RyR3 R12 + 500 µM ADP,0.613 ± 0.82
same,ΔH,[1]; RyR3 R12 + 500 µM ADP,-6.16 ± 0.15 kcal/mol
same,−TΔS,[1]; RyR3 R12 + 500 µM ADP,-2.63 kcal/mol
same,Kd,[1]; RyR3 R12 + 500 µM AMP-PCP,0.111 ± 0.025 µM
same,No of Sites (N),[1]; RyR3 R12 + 500 µM AMP-PCP,0.760 ± 0.45
same,ΔH,[1]; RyR3 R12 + 500 µM AMP-PCP,-7.90 ± 0.11 kcal/mol
same,−TΔS,[1]; RyR3 R12 + 500 µM AMP-PCP,-1.59 kcal/mol
same,Kd,[1]; RyR3 R12 + 5 mM ADP,0.052 ± 0.013 µM
same,No of Sites (N),[1]; RyR3 R12 + 5 mM ADP,0.813 ± 0.48
same,ΔH,[1]; RyR3 R12 + 5 mM ADP,-7.35 ± 0.11 kcal/mol
same,−TΔS,[1]; RyR3 R12 + 5 mM ADP,-2.59 kcal/mol
same,Kd,[1]; RyR3 R12 + 5 mM AMP-PCP,0.048 ± 0.021 µM
same,No of Sites (N),[1]; RyR3 R12 + 5 mM AMP-PCP,0.854 ± 0.21
same,ΔH,[1]; RyR3 R12 + 5 mM AMP-PCP,-7.80 ± 0.15 kcal/mol
same,−TΔS,[1]; RyR3 R12 + 5 mM AMP-PCP,-2.18 kcal/mol
same,No of Sites (N),"[1]; RyR3 R12, no nucleotide",1.02 ± 0.41
same,ΔH,"[1]; RyR3 R12, no nucleotide",-80 kcal/mol
same,−TΔS,"[1]; RyR3 R12, no nucleotide",75.40 kcal/mol
same,Kd,[1]; [5],394 ± 7.05 µM
same,binding to RyR2 R12 domain by ITC,[2],neither DAN nor AZU exhibited detectable binding
same,Kd,[3]; RyR1 R12 + 500 µM ADP,0.241 ± 0.031 µM
same,No of Sites (N),[3]; RyR1 R12 + 500 µM ADP,0.652 ± 0.16
same,ΔH,[3]; RyR1 R12 + 500 µM ADP,-7.92 ± 0.91 kcal/mol
same,−TΔS,[3]; RyR1 R12 + 500 µM ADP,-1.11 kcal/mol
same,No of Sites (N),[3]; RyR1 R12 + 500 µM AMP-PCP,0.904 ± 0.52
same,ΔH,[3]; RyR1 R12 + 500 µM AMP-PCP,-2.99 ± 0.47 kcal/mol
same,−TΔS,[3]; RyR1 R12 + 500 µM AMP-PCP,-6.48 kcal/mol
same,Kd,[3]; RyR1 R12 + 5 mM ADP,0.06 ± 0.012 µM
same,No of Sites (N),[3]; RyR1 R12 + 5 mM ADP,0.489 ± 0.28
same,ΔH,[3]; RyR1 R12 + 5 mM ADP,-8.45 ± 0.94 kcal/mol
same,−TΔS,[3]; RyR1 R12 + 5 mM ADP,-1.40 kcal/mol
same,Kd,[3]; RyR1 R12 + 5 mM AMP-PCP,0.046 ± 0.014 µM
same,No of Sites (N),[3]; RyR1 R12 + 5 mM AMP-PCP,0.718 ± 0.50
same,ΔH,[3]; RyR1 R12 + 5 mM AMP-PCP,-7.75 ± 0.12 kcal/mol
same,−TΔS,[3]; RyR1 R12 + 5 mM AMP-PCP,-2.26 kcal/mol
same,No of Sites (N),"[3]; RyR1 R12, no nucleotide",0.810 ± 0.21
same,ΔH,"[3]; RyR1 R12, no nucleotide",-80 kcal/mol
same,−TΔS,"[3]; RyR1 R12, no nucleotide",75.60 kcal/mol
same,Kd,[3]; [6],595 µM and 596 µM
same,Kd,[4],358 ± 138 µM
same,No of Sites (N),[4],1.04 ± 0.35
same,ΔH,[4],-35.60 kcal/mol
same,−TΔS,[4],30.90 kcal/mol
O=C(C[C@@H](NCCCO)C(=O)O)Nc1ccc2ccccc2c1 [RI-2],Kd,[1]; RyR3 R12 + 500 µM ADP,28.6 ± 18.7 µM
same,No of Sites (N),[1]; RyR3 R12 + 500 µM ADP,0.509 ± 0.54
same,ΔH,[1]; RyR3 R12 + 500 µM ADP,-6.40 ± 1.66 kcal/mol
same,−TΔS,[1]; RyR3 R12 + 500 µM ADP,-0.27 kcal/mol
same,Kd,[1]; RyR3 R12 + 500 µM AMP-PCP,7.85 ± 2.69 µM
same,No of Sites (N),[1]; RyR3 R12 + 500 µM AMP-PCP,0.604 ± 0.31
same,ΔH,[1]; RyR3 R12 + 500 µM AMP-PCP,-3.25 ± 0.40 kcal/mol
same,−TΔS,[1]; RyR3 R12 + 500 µM AMP-PCP,-3.72 kcal/mol
same,Kd,[1]; RyR3 R12 + 5 mM ADP,12.9 ± 6.2 µM
same,No of Sites (N),[1]; RyR3 R12 + 5 mM ADP,0.694 ± 0.42
same,ΔH,[1]; RyR3 R12 + 5 mM ADP,-11.9 ± 4.87 kcal/mol
same,−TΔS,[1]; RyR3 R12 + 5 mM ADP,5.75 kcal/mol
same,Kd,[1]; RyR3 R12 + 5 mM AMP-PCP,3.39 ± 0.83 µM
same,No of Sites (N),[1]; RyR3 R12 + 5 mM AMP-PCP,0.508 ± 0.21
same,ΔH,[1]; RyR3 R12 + 5 mM AMP-PCP,-4.58 ± 0.28 kcal/mol
same,−TΔS,[1]; RyR3 R12 + 5 mM AMP-PCP,-2.89 kcal/mol
same,No of Sites (N),"[1]; RyR3 R12, no nucleotide",0.970 ± 0.19
same,ΔH,"[1]; RyR3 R12, no nucleotide",-16.2 ± 16.70 kcal/mol
same,−TΔS,"[1]; RyR3 R12, no nucleotide",10.6 kcal/mol
same,Kd,[1]; [5],178 ± 93.1 µM
same,binding to RyR2 R12 domain by ITC,[2],no detectable binding
same,Kd,[3]; RyR1 R12 + 500 µM ADP,49.1 ± 50.1 µM
same,No of Sites (N),[3]; RyR1 R12 + 500 µM ADP,0.605 ± 0.21
same,ΔH,[3]; RyR1 R12 + 500 µM ADP,-3.08 ± 0.20 kcal/mol
same,−TΔS,[3]; RyR1 R12 + 500 µM ADP,-4.30 kcal/mol
same,Kd,[3]; RyR1 R12 + 500 µM AMP-PCP,1.75 ± 0.29 µM
same,No of Sites (N),[3]; RyR1 R12 + 500 µM AMP-PCP,0.721 ± 0.12
same,ΔH,[3]; RyR1 R12 + 500 µM AMP-PCP,-5.47 ± 0.17 kcal/mol
same,−TΔS,[3]; RyR1 R12 + 500 µM AMP-PCP,-2.39 kcal/mol
same,Kd,[3]; RyR1 R12 + 5 mM ADP,3.86 ± 0.975 µM
same,No of Sites (N),[3]; RyR1 R12 + 5 mM ADP,0.912 ± 0.43
same,ΔH,[3]; RyR1 R12 + 5 mM ADP,-15.09 ± 11.60 kcal/mol
same,−TΔS,[3]; RyR1 R12 + 5 mM ADP,10.1 kcal/mol
same,Kd,[3]; RyR1 R12 + 5 mM AMP-PCP,0.56 ± 0.17 µM
same,No of Sites (N),[3]; RyR1 R12 + 5 mM AMP-PCP,0.547 ± 0.43
same,ΔH,[3]; RyR1 R12 + 5 mM AMP-PCP,-7.05 ± 0.69 kcal/mol
same,−TΔS,[3]; RyR1 R12 + 5 mM AMP-PCP,-0.11 kcal/mol
same,No of Sites (N),"[3]; RyR1 R12, no nucleotide",0.519 ± 0.25
same,ΔH,"[3]; RyR1 R12, no nucleotide",-5.61 ± 0.73 kcal/mol
same,−TΔS,"[3]; RyR1 R12, no nucleotide",0.944 kcal/mol
same,Kd,[3]; [6],159 µM and 158 µM
same,Kd,[4],292 ± 22.5 µM
same,No of Sites (N),[4],0.94 ± 0.46
same,ΔH,[4],-10.7 ± 3.83 kcal/mol
same,−TΔS,[4],4.71 kcal/mol
